Results published in patent EP3708171A1, “TREATMENT OF VITAMIN D DEFICIENCY WITH 25(OH) VITAMIN D IN CRITICALLY ILL PATIENTS” (Bouillon, Roger, priority 2019, dated 2020).

Key:
[1] = Randomized, placebo-controlled pilot study of IV 25OHD supplementation in critically ill (ICU) patients; serum vitamin D metabolites and DBP (Example 1); assay type: in vivo
Protocol: The study was performed in accordance with the 1964 Declaration of Helsinki and its later amendments. The protocol and consent forms were approved by the institutional review board of the University Hospitals Leuven (ML2462). The study was registered at www.controlled-trials.com (ISRCTN24385496). Patients with an anticipated stay in the intensive care unit (ICU) of more than 10 days were eligible for inclusion in the study. Patients younger than 18 years, those suffering from chronic bone or kidney disease, and those who were treated with glucocorticoids before ICU admission were excluded. Patients were compared with healthy controls matched for age, gender and body mass index, of whom blood was sampled during summer time.
Upon ICU admission, patients were randomly allocated to either a daily IV injection of placebo (NaCl 0.9%) or to an IV loading dose of 200 µg 25OHD, followed by an IV replacement dose of 15 µg 25OHD per day, from ICU admission onward and continued for 10 days. Patients from both groups also received the usual vitamin D supplement, which consisted of a daily intravenous cholecalciferol supplement of +/-200 IU (5 µg, as part of 10 ml of Cernevit® (Clinitec-Baxter, Brussels, Belgium). 25OHD was obtained from Solvay Pharmaceuticals (Brussels, Belgium) and dissolved in ethanol by the hospital pharmacy under laminar flow conditions in glass vials, containing 200 µg/ml per vial for the loading dose and 15 µg/ml per vial for the replacement dose. A purity control was performed on the prepared samples using HPLC. Similarly, placebo vials were also prepared by the hospital pharmacy (1 ml NaCl 0.9% per vial). All vials were blinded by the hospital pharmacy.
The effect of IV 25OHD supplementation on vitamin D status (25OHD, 1,25(OH)2D, 24,25(OH)2D) was studied. Clinical outcome parameters (organ dysfunction (sequential organ failure assessment (SOFA) score, days on mechanical ventilation, need for renal replacement therapy), prolonged (>3 days) antibiotic therapy, ICU length of stay and mortality) were registered as safety endpoints. All patients were followed up and monitored for possible adverse events beyond the intervention period of 10 days until discharge or death. Analysts and investigators were blinded for treatment allocation.
Every day at 06.00 a.m., from ICU admission until ICU discharge or death, undiluted blood samples were taken through an arterial line that had been placed for clinical purposes. Serum and plasma samples were frozen and subsequently stored at -20°C until assay. Concentrations of 25OHD, 1,25(OH)2D, and 24,25(OH)2D were measured in serum.
25OHD was measured by competitive binding assay; 1,25(OH)2D by radioimmunoassay (RIA), and DBP by radial immunodiffusion, as previously reported by Bouillon et al (J Clin Invest 1981 67 589-596). A subset of the original 25OHD measurements were subsequently validated by re-analyses using LC-MS/MS, currently considered the gold standard. To this end, 58 samples from patients (treated with 25OHD or placebo) and controls were selected at random covering the full range of 25OHD serum concentrations (3.7-70.7 ng/ml). Briefly, serum proteins were precipitated using zinc sulphate solution, spiked with d6-25OHD3 as internal standard. After mixing and centrifugation, the supernatant was transferred to the liquid chromatography autosampler. We used a ScieX 5500 QTRAP mass spectrometer connected with a Shimadzu chromatographic system. The method consisted of an online clean-up step using a Strata C8 extraction cartridge. After loading and cleaning, the analytes were eluted by back-flushing. A Kinetex F5 column was used as analytical column. Atmospheric-pressure chemical ionization (APCI) positive mode was used. Mass transitions of 383>211, 295>211 and 389>211 were used for 25OHD3, 25OHD2 and the internal standard, respectively. Within-run and between-run CVs at clinically relevant concentrations varied between 6.3-7.4% and 6.9-8.8% respectively. […]

[2] = Further trial of IV 25OHD with higher replacement dose in critically ill patients (Example 2); assay type: in vivo; details: IV loading dose, then 25 µg 25OHD per day for 10 days
Protocol: The study design and materials are similar to the one described in Example 1, the difference being that the patients are administered higher bolus and daily replacement doses of 25OHD for at least two days after the bolus administration and preferably during the hospital stay of such patients .
The study is performed in accordance with the 1964 Declaration of Helsinki and its later amendments. Patients with an anticipated stay in the intensive care unit (ICU) of more than 10 days are considered eligible for inclusion in the study. […]
The effect of IV 25OHD supplementation on vitamin D status (25OHD) is studied. […] All patients are followed up and monitored for possible adverse events beyond the intervention period of 10 days until discharge or death. […]
Every day at 06.00 a.m., from ICU admission until ICU discharge or death, undiluted blood samples are taken through an arterial line that is present for clinical purposes. […] Concentrations of 25OHD are measured in serum.
StatView 5.0.1 (SAS Institute Inc., Cary, NC) and JMP13 (SAS) is used for the statistical analyses. […] Variables with a normal distribution are analyzed with Student's t-test, variables with a non-normal distribution with Mann-Whitney U, and proportions with the chi-square test. […]

[3] = normal subjects; cited from earlier work
[4] = cited from earlier work
[5] = daily administration of 15 µg 25(OH)D (Ingels et al. 2010)

Structure (SMILES)	25OHD serum concentration as compared with placebo ([1]; 10-day period, IV replacement dose 15 µg 25OHD per day)	concentrations of 1,25(OH)2D ([1]; IV 200 µg loading dose, then 15 µg/day for 10 days)	increase in serum 25OHD after bolus ([1]; IV loading dose of 200 µg 25OHD) [ng/mL]	increase of 25OHD levels ([1]; daily supplement of 15 µg of 25OHD)	25OHD serum concentrations ([1]; following the intravenous loading dose of 200 µg 25OHD, 20 ng/ml target)	increase of 25OHD levels in the subgroup receiving the active treatment ([1]; from 9.2 ng/ml baseline) [ng/mL]	catabolism of 25OHD in ICU patients versus normal subjects of the same age ([1]; human, in vivo)	Vd ([1]; human, in vivo, iv) [L]	safety endpoints (clinical outcome parameters) [2]	increase of serum 25OHD per daily dose of 1 ug of 25OHD [3] [ng/mL]	level of 1,25(OH)2D3 [4, 5]	serum levels of 25OHD [4, 5]	outcome of critically ill patients ([4]; oral, high dose, except subgroup with baseline severe vitamin D deficiency (lower hospital mortality))
C=C1CC[C@H](O)C/C1=C/C=C1\CCC[C@]2(C)[C@@H]([C@H](C)CCCC(C)(C)O)CC[C@@H]12 [25OHD, 25-hydroxyvitamin D]	remained elevated throughout the 10-day period	only transiently increased	11	about 8 ng/ml	instantly rose but did not reach the 20 ng/ml target	6.8	at least 3 fold	~18	positive effects	1.2	only a transient increase	increased the serum levels of 25OHD	
C=C1CC[C@H](O)C/C1=C/C=C1\CCC[C@]2(C)[C@@H]([C@H](C)CCCC(C)C)CC[C@@H]12 [vitamin D3]													did not affect outcome
